Measurements published in patent US11458149B1, “TEAD inhibitors and uses thereof” (Ikena Oncology, Inc., priority 2019, dated 2022).
pEC50: −log10 of the molar value.

How the values were obtained:
[1] = test system: TEAD; assay: TEAD reporter assay (Hippo Pathway TEAD Reporter - MCF7 cell line, luciferase); assay type: cell-based, human; details: Homo sapiens, MCF7, TEAD Reporter - MCF7 cells; read-out: TEAD Reporter Assay EC50
From the text: TEAD inhibition can be assayed using Hippo Pathway TEAD Reporter—MCF7 Cell Line (BPS Bioscience, Catalog #: 60618).
The TEAD Reporter—MCF7 cell line contains the firefly luciferase gene under the control of TEAD responsive elements stably integrated into the human breast cancer cell line, MCF7. Inside the cells, basal unphosphorylated YAP/TAZ remains in the nucleus and induces the constitutive expression of luciferase reporter. The cell line is validated for the inhibition of the expression of luciferase reporter by the activators of the Hippo pathway.
• 1) Harvest TEAD Reporter—MCF7 cells from culture in growth medium and seed cells at a density of 35,000 cells per well into white clear-bottom 96-well microplate in 45 μl of assay medium. • 2) Incubate cells at 37° C. in a CO2 incubator for overnight. • 3) Dilute the activators (H2O2 or okadaic acid) stock in assay medium. Add 5 μl of diluted activators to the wells. The final concentration of DMSO in assay medium is 0.1%. • 4) Add 5 μl of assay medium with same concentration of DMSO without activator to control wells. • 5) Add 50 μl of assay medium with DMSO to cell-free control wells (for determining background luminescence). • 6) Set up each treatment in at least triplicate. • 7) Incubate cells at 37° C. in a CO2 incubator for 5-6 hours. • 8) Perform luciferase assay using the ONE-Step™ Luciferase Assay System following the protocol provided: Add 100 μl of ONE-Step™ Luciferase reagent per well and rock at room temperature for ˜15 minutes. Measure luminescence using a luminometer. • 9) Data Analysis: Obtain the background-subtracted luminescence by subtracting the average background luminescence (cell-free control wells) from the luminescence reading of all wells.
(§1) Certain compounds were tested in TEAD reporter assay, and in H226 and H28. A: EC50<0.1 uM; B: 0.1 uM≤EC50≤0.5 uM; C: EC50>0.5 uM.

[2] = test system: H226; assay: Anti-proliferation assay in H226 cells; assay type: cell-based, human; details: Homo sapiens, NCI-H226, H226 cells; read-out: H226 EC50
Procedure: as §1
(§2) Individual cell lines were grown in medium according to supplier instructions and seeded into 96-well plates at a density that ensured logarithmic growth over 72 hours. TEAD inhibitor compounds were administered to cells at a top concentration of 10 μm and subsequently a 10 point 3-fold serial dilution was conducted. After 72 hours, proliferation was quantified using Cell TITERGLO™ (Promega, Inc.) and compared to vehicle control. IC50 and EC50 values were generated using XLFit curve fitting software.

[3] = test system: H28; assay: Anti-proliferation assay in H28 cells; assay type: cell-based; details: Homo sapiens, NCI-H28
Procedure: as §1, §2
The effect of isomer 2 of compound I-12 on cell proliferation is dependent on the presence of a Hippo/NF2 mutation. No effect is seen by isomer 2 of compound I-12 on the NF2 wild-type H28 cell line.

[4] = Mouse pharmacokinetics study; assay type: in vivo; details: mouse, BALB/c mice, 10 mg/kg oral gavage, 5% DMS/95% PEG400, plasma
Procedure: Formulated compounds were administered intravenously or orally via gavage to BALB/c mice. Typically, at 0.167, 0.5, 1, 2, 4, 6, 12, and 24 hours post-dose, blood was collected and processed to plasma by centrifugation and stored at −80° C. until analysis. Internal standard was added to each sample prior to protein precipitation with acetonitrile or TCA. The precipitates were filtered through a filter plate and the samples were analyzed by LC/MS/MS. A standard curve was prepared in plasma from typically from 1.0 ng/mL to 3000 ng/mL and processed in the same manner as the samples. Sample analysis was typically performed on a suitable LC/MS/MS system fitted with an analytical UPLC column and compounds eluted from the analytical column with a gradient from 30-95% 0.1% formic acid (v/v) in ACN: 0.1% formic acid (v/v) in water. Mass spectrometric detection of test compound and the internal standard was performed by […] in positive mode. The pharmacokinetics of each compound were analyzed by Phoenix WinNonlin software (Pharsight, St. Louis, Mo.) via noncompartmental analysis. FIG. 4 depicts pharmacokinetic (PK) properties of isomer 1 of compound I-186 following dosing in BALB/c mice.

SMILES	pEC50 [1]	pEC50 [2]	pEC50 [3]	AUC(0-t) [4] [ng·h/mL]	Cmax ([4]; read-out: Cmax) [ng/mL]
C=CC(=O)NC1CCN(Cc2ccc(C(F)(F)F)cc2)CC1 [Compound I-46, N-[1-[[4-(Trifluoromethyl)phenyl]methyl]-4-piperidyl]prop-2-enamide]	6.30 to 7.00	6.30 to 7.00	< 6.30	1140	735
C=CC(=O)Nc1ccc(C)c(Oc2cncc(C(F)(F)F)c2)c1 [Compound I-30, N-[4-Methyl-3-[[5-(trifluoromethyl)-3-pyridyl]oxy]phenyl]prop-2-enamide]	> 7.00	> 7.00	< 6.30	–	–
C=CC(=O)NC1CCN(S(=O)(=O)c2ccc(C(F)(F)F)cc2)CC1 [Compound I-50, N-[1-[4-(trifluoromethyl)phenyl]sulfonyl-4-piperidyl]prop-2-enamide]	< 6.30	< 6.30	< 6.30	–	–
C=CC(=O)NC1CCN(Cc2ccccc2C(F)(F)F)CC1 [Compound I-49, N-[1-[[2-(trifluoromethyl)phenyl]methyl]-4-piperidyl]prop-2-enamide]	< 6.30	< 6.30	< 6.30	–	–
C=CC(=O)Nc1ccc(Br)c(Nc2cccc(C(F)(F)F)c2)c1 [Compound I-36, N-[4-bromo-3-[3-(trifluoromethyl)anilino]phenyl]prop-2-enamide]	> 7.00	> 7.00	< 6.30	–	–
C=CC(=O)Nc1ccc(C)c(Nc2ccc(Cl)cc2)c1 [Compound I-27, N-[3-(4-Chloroanilino)-4-methyl-phenyl]prop-2-enamide]	> 7.00	> 7.00	< 6.30	–	–
